{"source": "patent US20220347171A1", "about": "“TREATMENT OF PRURIGO NODULARIS” (TREVI THERAPEUTICS, INC., priority 2016, published 2022)", "format_in_all_cases": "in vivo, human", "key": {"[1]": {"tested_on": "prurigo nodularis patients", "experiment": "TR03ext (Example 3), titrated 30 mg QD to 180 mg BID: ItchyQoL Total Score", "settings": "Baseline 75.2 (15.1)", "source_text": "(§1) This clinical study was a Phase 2 Open Label Extension Study (clinical study TR03ext) of the randomized, double-blind, 3-parallel arm, placebo controlled dose ranging study described in Example 2. All those subjects who were randomized, and then completed Example 2 study, were eligible to participate in the Extension Study.\n(§2) The primary endpoint was a description of the overall incidence and nature of Treatment-Emergent AEs (TEAES) during weeks 5-50 of the study. Exploratory efficacy endpoints included Change from Baseline patient reported outcome measures of Worst itch NRS, itchy VRS and ItchyQoL, by Treatment Period study visit and Baseline NRS score. There was also an assessment of any potential skin lesion changes over time using the metrics of the PAS.\n(§3) Of the 63 patients that were randomized to the study of Example 2, 36 subjects who enrolled into Extension Study entered the Treatment Period of the study and were exposed to nalbuphine HCl ER tablet administration and are the basis of the study safety population analysis.\n(§4) Patients in Extension Study were titrated over a dose range of 30 mg QD to 180 mg BID based on tolerability. The selected dose range was based on Example 2 study whereby patients were titrated from a 30 mg QD dose either to 30 mg BID, 60 mg BID, 90 mg BID, 120 mg BID or a 180 mg BID dose. The highest dose proposed was 180 mg BID (360 mg daily dose), and was well below the highest recommended daily treatment of 160 mg IV (equivalent to 960 mg oral) for the current marketed parenteral administered product.\n(§5) The study duration for each patient was up to 52 weeks, with up to 50 weeks on study drug. The Extension Study consisted of a Treatment Period (that was followed by a Washout Safety Follow-up Period) and an Observation Period. Patients either entered directly into a drug Treatment Period (NRS >5) or a no-drug Observation Period (NRS ≤5) based on their reported NRS scores on the first Visit (Visit 1a). For up to 12 Extended Screening weeks, patients in the no-drug Observation Period could have also transitioned into the drug Treatment Period if their NRS increased to NRS >5. All patients entering the Treatment Period, whether immediately upon study entry or following a period of time in the Observation Period, were titrated to a dose ranging between 30 mg up to 180 mg BID, the highest dose tested in Example 2."}, "[2]": {"tested_on": "prurigo nodularis patients", "experiment": "Example 2 trial: average itch intensity NRS score", "settings": "180 mg BID; end of treatment; 95% CI −2.764, −0.134; P=0.031", "procedure": "This clinical study was a double-blind, placebo-controlled trial in which prurigo nodularis patients were randomized in a 1:1:1 ratio to nalbuphine ER tablets to a target dose of 90 mg twice daily (BID), nalbuphine HCl ER tablets 180 mg BID, or placebo tablets BID. Use of nonsedating rescue antihistamine medications (non-first generation H1-antihistamines [Simons F E. Advances in H1-antihistamines. N Engl J Med. 2004; 351(21):2203-17.]) were allowed in the study but their use was recorded. Cleansing emollients were allowed for hygiene purposes provided there were no active substances (such as menthol or urea) contained in the lotion. A placebo comparator was chosen because there are no approved treatments for prurigo nodularis in the United States or Europe or an established standard of care that could serve as an active control.\n(1) The proportion of patients with at least a 30% reduction in the 7-day average daily diary-reported NRS itch intensity from baseline to the evaluation visit (Week 10). (2) The proportion of patients with at least a 50% reduction in the 7-day average daily diary-reported NRS itch intensity from baseline to the evaluation visit (Week 10). […] (5) Prurigo nodularis skin lesions, as quantitatively measured by the Prurigo Activity Score (PAS) recorded at baseline and during evaluation visit (Week 10). […]"}, "[3]": {"tested_on": "prurigo nodularis patients", "experiment": "Phase 2 open label extension study (TR03ext, Example 3), titrated 30 mg QD to 180 mg BID, up to 50 weeks: Worst itch NRS", "settings": "for Worst Itch NRS Visit Mean (SD): Baseline 7.6 (1.6)", "source_text": "as §1, §2, §3, §4, §5"}}, "note": "Where a name gives a salt, the structure may show the parent alone.", "data": [{"smiles": "Oc1ccc2c3c1OC1[C@@H](O)CC[C@@]4(O)[C@@H](C2)N(CC2CCC2)CC[C@]314", "note": "(stereo partly drawn) [Nalbuphine, 17-(cyclobutylmethyl)-4,5α-epoxymorphinian-3, 6α, 14-triol, hydrochloride]", "values": [{"measurement": "ItchyQoL Total Score Visit Mean (SD)", "setting": "[1]; Study Week 3, N=33", "result": "70.3 (18.7)"}, {"measurement": "ItchyQoL Total Score Visit Mean (SD)", "setting": "[1]; Study Week 5, N=31", "result": "67.8 (19.0)"}, {"measurement": "ItchyQoL Total Score Visit Mean (SD)", "setting": "[1]; Study Week 9, N=28", "result": "65.8 (18.5)"}, {"measurement": "ItchyQoL Total Score Visit Mean (SD)", "setting": "[1]; Study Week 13, N=24", "result": "65.7 (17.4)"}, {"measurement": "ItchyQoL Total Score Visit Mean (SD)", "setting": "[1]; Study Week 17, N=24", "result": "63.5 (19.4)"}, {"measurement": "ItchyQoL Total Score Visit Mean (SD)", "setting": "[1]; Study Week 21, N=21", "result": "62.6 (18.0)"}, {"measurement": "ItchyQoL Total Score Visit Mean (SD)", "setting": "[1]; Study Week 26, N=20", "result": "59.4 (16.8)"}, {"measurement": "ItchyQoL Total Score Visit Mean (SD)", "setting": "[1]; Study Week 30, N=19", "result": "60.8 (18.9)"}, {"measurement": "ItchyQoL Total Score Visit Mean (SD)", "setting": "[1]; Study Week 34, N=17", "result": "62.2 (15.2)"}, {"measurement": "ItchyQoL Total Score Visit Mean (SD)", "setting": "[1]; Study Week 38, N=16", "result": "61.9 (16.1)"}, {"measurement": "ItchyQoL Total Score Visit Mean (SD)", "setting": "[1]; Study Week 42, N=16", "result": "63.4 (15.3)"}, {"measurement": "ItchyQoL Total Score Visit Mean (SD)", "setting": "[1]; Study Week 46, N=16", "result": "62.4 (14.1)"}, {"measurement": "ItchyQoL Total Score Visit Mean (SD)", "setting": "[1]; Study Week 50, N=14", "result": "63.3 (15.9)"}, {"measurement": "LS mean treatment difference in change from baseline average itch intensity NRS score versus placebo", "setting": "[2]", "result": "−1.45"}, {"measurement": "Worst Itch NRS Mean (SD) Change from Baseline", "setting": "[3]; Study Week 3, N=34", "result": "−2.0 (2.2)"}, {"measurement": "Worst Itch NRS Visit Mean (SD)", "setting": "[3]; Study Week 3, N=34", "result": "5.7 (2.4)"}, {"measurement": "Worst Itch NRS Mean (SD) Change from Baseline", "setting": "[3]; Study Week 5, N=33", "result": "−2.5 (2.2)"}, {"measurement": "Worst Itch NRS Visit Mean (SD)", "setting": "[3]; Study Week 5, N=33", "result": "5.2 (2.5)"}, {"measurement": "Worst Itch NRS Mean (SD) Change from Baseline", "setting": "[3]; Study Week 9, N=30", "result": "−2.9 (2.2)"}, {"measurement": "Worst Itch NRS Visit Mean (SD)", "setting": "[3]; Study Week 9, N=30", "result": "4.6 (2.3)"}, {"measurement": "Worst Itch NRS Mean (SD) Change from Baseline", "setting": "[3]; Study Week 13, N=25", "result": "−2.7 (1.8)"}, {"measurement": "Worst Itch NRS Visit Mean (SD)", "setting": "[3]; Study Week 13, N=25", "result": "4.8 (2.2)"}, {"measurement": "Worst Itch NRS Mean (SD) Change from Baseline", "setting": "[3]; Study Week 17, N=25", "result": "−3.6 (2.6)"}, {"measurement": "Worst Itch NRS Visit Mean (SD)", "setting": "[3]; Study Week 17, N=25", "result": "3.8 (2.4)"}, {"measurement": "Worst Itch NRS Mean (SD) Change from Baseline", "setting": "[3]; Study Week 21, N=22", "result": "−3.3 (2.4)"}, {"measurement": "Worst Itch NRS Visit Mean (SD)", "setting": "[3]; Study Week 21, N=22", "result": "4.1 (2.4)"}, {"measurement": "Worst Itch NRS Mean (SD) Change from Baseline", "setting": "[3]; Study Week 26, N=21", "result": "−3.9 (2.2)"}, {"measurement": "Worst Itch NRS Visit Mean (SD)", "setting": "[3]; Study Week 26, N=21", "result": "3.4 (1.6)"}, {"measurement": "Worst Itch NRS Mean (SD) Change from Baseline", "setting": "[3]; Study Week 30, N=20", "result": "−4.2 (2.3)"}, {"measurement": "Worst Itch NRS Visit Mean (SD)", "setting": "[3]; Study Week 30, N=20", "result": "3.2 (1.6)"}, {"measurement": "Worst Itch NRS Mean (SD) Change from Baseline", "setting": "[3]; Study Week 34, N=18", "result": "−3.9 (2.1)"}, {"measurement": "Worst Itch NRS Visit Mean (SD)", "setting": "[3]; Study Week 34, N=18", "result": "3.3 (1.6)"}, {"measurement": "Worst Itch NRS Mean (SD) Change from Baseline", "setting": "[3]; Study Week 38, N=17", "result": "−3.9 (1.7)"}, {"measurement": "Worst Itch NRS Visit Mean (SD)", "setting": "[3]; Study Week 38, N=17", "result": "3.2 (1.6)"}, {"measurement": "Worst Itch NRS Mean (SD) Change from Baseline", "setting": "[3]; Study Week 42, N=17", "result": "−3.9 (1.4)"}, {"measurement": "Worst Itch NRS Visit Mean (SD)", "setting": "[3]; Study Week 42, N=17", "result": "3.2 (1.4)"}, {"measurement": "Worst Itch NRS Mean (SD) Change from Baseline", "setting": "[3]; Study Week 46, N=17", "result": "−3.9 (1.3)"}, {"measurement": "Worst Itch NRS Visit Mean (SD)", "setting": "[3]; Study Week 46, N=17", "result": "3.2 (1.5)"}, {"measurement": "Worst Itch NRS Mean (SD) Change from Baseline", "setting": "[3]; Study Week 50, N=15", "result": "−4.3 (1.3)"}, {"measurement": "Worst Itch NRS Visit Mean (SD)", "setting": "[3]; Study Week 50, N=15", "result": "2.9 (1.7)"}]}]}
